Laboratory results reported in patent publication US12667724B2, “Combination therapy for the treatment of depression” (Flow Neuroscience, Inc., priority 2022, dated 2026).
“Also recorded” adds a separate entry of the source.

Tests used:
[1] = Weekly MADRS-s self-assessment of MDD subjects on a prescribed antidepressant combined with home tDCS sessions (Example 2); assay type: in vivo, human; conditions: for effectiveness in reducing symptoms of depression (change in MADRS-s) compared to fluoxetine: combined with tDCS, Week 6
Excerpt: In this example, a subject completed a MADRS-s questionnaire at baseline (defined as a time preceding initiation of neurostimulation) to determine a starting measurement to be used in an assessment of treatment efficacy. Ideally, baseline measures were made close to the period of time in which the first neurostimulation session began. The subject completed the same MADRS-s questionnaire weekly during a period of ongoing treatment comprising administering of a prescribed pharmacologic antidepressant agent and delivery to the subject of plurality tDCS sessions. The number of and date completed of each tDCS session was recording in order to analyze subjects according to how often they successfully completed tDCS sessions as part of their treatment regimens. Subjects were parcellated into groups of 1) depression symptoms absent, 2) mild depression, 3) moderate depression, or 4) severe depression to further enable analysis of changes in MADRS-s score according to severity of depression and adherence to the recommended tDCS session schedule. […]
Subjects were provided with a tDCS neurostimulation device, instructions of use, and an program capable of being run on a handheld electronic device which provided instructions, recorded responses to various questionnaires completed by the subject, and recorded information regarding the tDCS stimulation sessions completed by the user. Amongst the tDCS stimulation session information recorded was the date of each session completed, the time of day of each completed session, the duration of each completed session, the intensity of electrical stimulation in each session, the latency from the most recently completed session to the previous session.
Subjects completed a MADSR-s assessment at baseline prior to their first tDCS session. […] In this treatment tracking questionnaire, subjects recorded if their specific antidepressant agent or category of antidepressant had changed. […] Subjects also recorded if the dosage administered of the antidepressant medication had changed in the past month. […]

[2] = tested on: serotonin reuptake and norepinephrine reuptake; conditions: cited from earlier work

Structure (SMILES) | effectiveness in reducing symptoms of depression (change in MADRS-s) compared to fluoxetine [1] | Result of ANOVA of change in MADRS-s score ([1]; Week 6 after initiation of treatment, Fluoxetine vs. the labelled agent, each combined with tDCS, irrespective of tDCS adherence) | selectivity for serotonin reuptake inhibition than norepinephrine reuptake inhibition [2]
CN[C@H]1CC[C@@H](c2ccc(Cl)c(Cl)c2)c2ccccc21 [Sertraline, sertraline] | significant difference; also recorded: significantly better | – | –
COc1ccc(C(CN(C)C)C2(O)CCCCC2)cc1 (centres unmarked) [Venlafaxine, venlafaxine] | approaching significance | Approaching | –
CN(C)CC(c1ccc(O)cc1)C1(O)CCCCC1 (centres unmarked) [desvenlafaxine] | – | – | 10 fold
CNCC[C@H](Oc1cccc2ccccc12)c1cccs1 [duloxetine] | – | – | 10 fold
